Test results from US20260109707A1, “HETEROBIFUNCTIONAL COMPOUNDS AND METHODS OF TREATING DISEASE” (Halda Therapeutics OpCo. Inc., priority 2022, published 2026).
Read-outs that look alike come from different tables or passages of the source.

Assays:
[1] = system: T-Rex 293 cell line SC3 cells having increased expression of androgen receptor protein due to exposure to doxycycline; assay: Cellular growth inhibition assay, T-Rex 293 SC3 cells with doxycycline (CellTiter-Glo, 72 hours); assay type: cell-based; conditions: T-Rex 293 SC3 cells with increased androgen receptor expression due to doxycycline (10 ng/mL)
Method: (§1) The following types of cells were prepared for this experiment: (i) a T-Rex 293 cell line having increased expression of androgen receptor protein due to exposure to doxycycline and (ii) a T-Rex 293 cell line lacking increased expression of androgen receptor protein. Ability of the test compounds to inhibit proliferation of the foregoing cell types was evaluated according to the procedures set forth below.
(§2) The doxycycline-inducible androgen receptor protein expressing cell line was established using the following protocol: T-Rex 293 cells were purchased from Invitrogen (Cat #R71007) and transfected using Lipofectamine 2000 with the wild-type androgen receptor protein sequence cloned into the pcDNA4/TO vector. Transfected cells were selected using 400 μg/mL Zeocin (Invitrogen Cat #R25001). Following selection, single clones were raised and maintained in Dulbecco's Modified Eagle Medium (DMEM) supplemented with 10% w/w Tetracycline-free fetal bovine serum (FBS) and 250 μg/mL Zeocin. Clones were analyzed for expression of androgen receptor protein in the presence and absence of 10 ng/mL doxycycline (Sigma Cat #D9891), and a single doxycycline-inducible clone (hereinafter “SC3”) was selected for use in downstream assays.
(§3) The SC3 cells were seeded on poly-D-lysine coated, black clear-bottom 384-well plates at 2500/well, in 25 μL Phenol Red Free Dulbecco's Modified Eagle Medium (DMEM) supplemented with 10% w/w charcoal-dextran treated fetal bovine serum (FBS) and 1% w/w pen-strep, with or without 10 ng/mL doxycycline. Pen-Strep is a commercially available mixture of penicillin G and streptomycin, which is used in mammalian cell culture media to prevent bacterial contamination. Phenol Red Free Dulbecco's Modified Eagle Medium (DMEM) supplemented with 10% w/w charcoal-dextran treated fetal bovine serum (FBS) and 1% w/w pen-strep, with or without 10 ng/mL doxycycline is herein referred to as Treatment Medium. Following seeding of cells in the plates, the plates were spun at 300×g for 30 seconds, then equilibrated to room temperature for 30 minutes, and then deposited in a humidified tissue culture incubator maintained at 37° C. with 5% CO2.
(§4) At 24 hours after seeding of the cells, dilutions of test compound were prepared in DMSO and dissolved in Treatment Medium, to achieve a final DMSO concentration of 0.5% w/w, thereby providing the Test Compound Solution. A 25 μL aliquot of the Test Compound Solution was added to cells in the well plates. An equal volume of a solution containing DMSO and Treatment Medium was used as a negative control. Following treatment of cells with Test Compound Solution or said equal volume of a solution containing DMSO and Treatment Medium, the plates were spun at 300×g for 30 seconds, and then left in an incubator for 72 hours.
(§5) At the end of the treatment duration, cell viability was quantified with CellTiter-Glo 2.0 reagent (Promega Cat #G9243). For this purpose, plates were equilibrated to room temperature for 30 minutes, and then 25 μL of CellTiter-Glo 2.0 reagent was added to cells in the plate wells. Plates were then agitated on a shaker for two minutes at 500 rpm and subsequently incubated at room temperature for 10 minutes. Following incubation, the plates were spun at 3000×g for 30 seconds, then sealed with an optical adhesive cover, and luminescence readings were measured with an EnVision Plate Reader.
(§6) Data was normalized using zero luminescence for baseline. A four-parameter non-linear regression curve fit was applied to dose-response data in GraphPad Prism data analysis software to determine the half-maximal growth inhibitory concentration (GI50) for each test compound.

VCaP cells = assay: Cellular growth inhibition assay for VCaP cells (CellTiter-Glo, 72 hours); assay type: cell-based, human
Method: VCaP cells were purchased from American Type Cell Culture (ATCC Cat #CRL2876) and then seeded on poly-D-lysine coated, black clear-bottom 384-well plates at 5000/well in 25 μL Dulbecco's Modified Eagle Medium (DMEM) supplemented with 10% w/w Fetal bovine serum (FBS) and 1% w/w Pen-Strep. Pen-Strep is a commercially available mixture of penicillin G and streptomycin, which is used in mammalian cell culture media to prevent bacterial contamination. Dulbecco's Modified Eagle Medium (DMEM) supplemented with 10% w/w fetal bovine serum (FBS) and 1% w/w Pen-Strep is herein referred to as Treatment Medium. Following seeding of cells in the plates, the plates were spun at 300×g for 30 seconds, then equilibrated to room temperature for 30 minutes, and then deposited in a humidified tissue culture incubator maintained at 37° C. with 5% C0-2.
as §4, §5, §6

[2] = system: T-Rex 293 cell line SC3 cells lacking increased expression of androgen receptor protein; assay: Cellular growth inhibition assay, T-Rex 293 SC3 cells without doxycycline (CellTiter-Glo, 72 hours); assay type: cell-based; conditions: T-Rex 293 cell line SC3 cells not exposed to doxycycline (lacking increased androgen receptor expression)
Method: as §1, §2, §3, §4, §5, §6

| SMILES | GI50 ([1]; 72 h) [µM] | GI50 (VCaP cells; Homo sapiens, VCaP, 72 h) [µM] | GI50 ([2]; 72 h) [µM] | GI50 [2] [µM] | GI50 [1] [µM] | GI50 (VCaP cells) [µM] |
| --- | --- | --- | --- | --- | --- | --- |
| Cc1sc2c(c1C)C(c1ccc(N3CCN(CC4CCN(c5ccc(C(=O)N[C@H]6CC[C@H](Oc7ccc(C#N)c(Cl)c7)CC6)nn5)CC4)CC3)cc1)=NC1(CC1)c1nnc(C)n1-2 [I-491] | < 0.5 | > 3 | < 0.5 |  |  |  |
| Cc1sc2c(c1C)C(c1cccc(N3CCC4(CCN(c5ccc(C(=O)N[C@H]6CC[C@H](Oc7ccc(C#N)c(Cl)c7)CC6)nn5)C4)C3)c1)=N[C@@H](C)c1nnc(C)n1-2 (some centres unmarked) [I-682] | < 0.5 | 0.5 to 1.5 |  | 0.5 to 1.5 |  |  |
| Cc1sc2c(c1C)C(c1ccc(C#CC3CC4(C3)CN(c3ccc(C(=O)N[C@H]5CC[C@H](Oc6ccc(C#N)c(Cl)c6)CC5)nn3)C4)cn1)=N[C@@H](C)c1nnc(C)n1-2 [I-458] | < 0.5 | < 0.5 | < 0.5 |  |  |  |
| CC[C@@H]1N=C(c2ccc(N3CCC4(CC3)CC(Cc3ccc(C(=O)N[C@H]5CC[C@H](Oc6ccc(C#N)c(Cl)c6)CC5)nn3)C4)cc2)c2c(sc(C)c2C)-n2c(C)nnc21 [I-612] | < 0.5 | < 0.5 | > 3 |  |  |  |
| Cc1sc2c(c1C)C(c1ccc(OCC3CC4(CCCN(c5ccc(C(=O)N[C@H]6CC[C@H](Oc7ccc(C#N)c(Cl)c7)CC6)nn5)C4)C3)cn1)=N[C@@H](C)c1nnc(C)n1-2 (some centres unmarked) [I-482] | < 0.5 | < 0.5 | < 0.5 |  |  |  |
| Cc1sc2c(c1C)C(c1ccc(C3CCC4(CCN(c5ccc(C(=O)N[C@H]6CC[C@H](Oc7ccc(C#N)c(Cl)c7)CC6)nn5)CC4)C3)cc1)=NC(C(F)(F)F)c1nnc(C)n1-2 (some centres unmarked) [I-758] |  |  |  | > 3 | > 3 | > 3 |
| Cc1sc2c(c1C)C(c1ccc(N3CCC4(CCCN(c5ccc(C(=O)N[C@H]6CC[C@H](Oc7ccc(C#N)c(Cl)c7)CC6)nn5)C4)CC3)cc1)=NC(C(F)(F)F)c1nnc(C)n1-2 (some centres unmarked) [I-722] |  |  |  | > 3 | > 3 | > 3 |
| Cc1sc2c(c1C)C(c1ccc(NCCC3CCCN(c4ncc(C(=O)N[C@H]5CC[C@H](Oc6ccc(C#N)c(Cl)c6)CC5)cn4)C3)cc1)=NC(Cc1ncco1)c1nnc(C)n1-2 (some centres unmarked) [I-800] | < 0.5 | < 0.5 | < 0.5 |  |  |  |
| Cc1sc2c(c1C)C(c1ccccc1OCC1CCN(c3ccc(C(=O)N[C@H]4CC[C@H](Oc5ccc(C#N)c(Cl)c5)CC4)nn3)CC1)=N[C@@H](C)c1nnc(C)n1-2 [I-650] |  |  |  | > 3 | < 0.5 | 1.5 to 3 |
| Cc1sc2c(c1C)C(c1ccc(CC3CC(CC4CCN(c5ccc(C(=O)N[C@H]6CC[C@H](Oc7ccc(C#N)c(Cl)c7)CC6)nn5)CC4)C3)cc1)=N[C@@H](C)c1nnc(C)n1-2 (some centres unmarked) [I-628] | < 0.5 | < 0.5 | > 3 |  |  |  |
| CCNC(=O)C[C@@H]1N=C(c2ccc(OC3CN(CC4CCN(c5ccc(C(=O)N[C@H]6CC[C@H](Oc7ccc(C#N)c(Cl)c7)CC6)nn5)CC4)C3)cc2)c2c(sc(C)c2C)-n2c(C)nnc21 [I-45] | < 0.5 | 0.5 to 1.5 | 0.5 to 1.5 |  |  |  |
| Cc1sc2c(c1C)C(c1ccc(C3CCC4(CC3)CCN(c3ccc(C(=O)N[C@H]5CC[C@H](Oc6ccc(C#N)c(Cl)c6)CC5)nn3)CC4)cc1)=NC1(CC1)c1nnc(C)n1-2 [I-532] | < 0.5 | < 0.5 | > 3 |  |  |  |
| COC[C@@H]1N=C(c2ccc(C3CCC4(CCCN(c5ccc(C(=O)N[C@H]6CC[C@H](Oc7ccc(C#N)c(Cl)c7)CC6)nn5)C4)CC3)cc2)c2c(sc(C)c2C)-n2c(C)nnc21 (some centres unmarked) [I-655] |  |  |  | < 0.5 | < 0.5 | 0.5 to 1.5 |
| Cc1sc2c(c1C)C(c1ccc(CC3CCC4(CCCN(c5ccc(C(=O)N[C@H]6CC[C@H](Oc7ccc(C#N)c(Cl)c7)CC6)nn5)C4)C3)nc1)=N[C@@H](C)c1nnc(C)n1-2 (some centres unmarked) [I-665] | < 0.5 | < 0.5 | > 3 |  |  |  |
| Cc1sc2c(c1C)C(c1ccccc1OC1CCC3(CC1)CCN(c1ccc(C(=O)N[C@H]4CC[C@H](Oc5ccc(C#N)c(Cl)c5)CC4)nn1)C3)=N[C@@H](C)c1nnc(C)n1-2 (some centres unmarked) [I-753] |  |  |  | < 0.5 | < 0.5 | < 0.5 |
| Cc1sc2c(c1C)C(c1ccc(OC3CCC4(CCN(c5ccc(C(=O)N[C@H]6CC[C@H](Oc7ccc(C#N)c(Cl)c7)CC6)nn5)C4)C3)cc1)=N[C@@H](C)c1nnc(C)n1-2 (some centres unmarked) [I-733] | < 0.5 |  | < 0.5 |  |  | < 0.5 |
| Cc1sc2c(c1C)C(c1ccc(OC3CC4(CCCN(c5ccc(C(=O)N[C@H]6CC[C@H](Oc7ccc(C#N)c(Cl)c7)CC6)nn5)C4)C3)cc1)=NCc1nnc(C)n1-2 (some centres unmarked) [I-473] | < 0.5 | < 0.5 | > 3 |  |  |  |
| Cc1sc2c(c1C)C(c1ccc(CCCC3CCCN(c4ccc(C(=O)N[C@H]5CC[C@H](Oc6ccc(C#N)c(Cl)c6)CC5)nn4)CC3)cn1)=N[C@@H](C)c1nnc(C)n1-2 (some centres unmarked) [I-699] | < 0.5 | < 0.5 |  | > 3 |  |  |
| COC[C@@H]1N=C(c2ccc(N3CCC4(CCCN(c5ccc(C(=O)N[C@H]6CC[C@H](Oc7ccc(C#N)c(Cl)c7)CC6)nn5)C4)CC3)cc2)c2c(sc(C)c2C)-n2c(C)nnc21 [I-568] | < 0.5 | 1.5 to 3 | < 0.5 |  |  |  |
| Cc1sc2c(c1C)C(c1ccc(C3CCC4(CCN(c5ccc(C(=O)N[C@H]6CC[C@H](Oc7ccc(C#N)c(Cl)c7)CC6)nn5)CC4)C3)nc1)=NC1(CC1)c1nnc(C)n1-2 (some centres unmarked) [I-609] | < 0.5 | < 0.5 |  | 0.5 to 1.5 |  |  |
| Cc1sc2c(c1C)C(c1ccc(N3CC(C4CCN(c5ccc(C(=O)N[C@H]6CC[C@H](Oc7ccc(C#N)c(Cl)c7)CC6)nn5)C4)C3)cc1)=N[C@@H](C)c1nnc(C)n1-2 (some centres unmarked) [I-555] | < 0.5 | < 0.5 | < 0.5 |  |  |  |
| Cc1sc2c(c1C)C(c1ccc(N3CCC4(CCN(c5ccc(C(=O)N[C@H]6CC[C@H](Oc7ccc(C#N)c(Cl)c7)CC6)nn5)C4)C3)cc1)=N[C@@H](C)c1nnc(C)n1-2 (some centres unmarked) [I-512] |  | < 0.5 | < 0.5 |  |  |  |
| COC[C@@H]1N=C(c2ccc(C3CCC4(CC3)CCN(c3ccc(C(=O)N[C@H]5CC[C@H](Oc6ccc(C#N)c(Cl)c6)CC5)nn3)C4)cc2)c2c(sc(C)c2C)-n2c(C)nnc21 (some centres unmarked) [I-601] | < 0.5 | < 0.5 |  |  |  |  |
| COC[C@@H]1N=C(c2ccc(OC3CC4(CCCN(c5ccc(C(=O)N[C@H]6CC[C@H](Oc7ccc(C#N)c(Cl)c7)CC6)nn5)C4)C3)cc2)c2c(sc(C)c2C)-n2c(C)nnc21 (some centres unmarked) [I-693] |  | < 0.5 | < 0.5 |  |  |  |
| Cc1sc2c(c1C)C(c1ccc(CC3CC(OC4CCN(c5ccc(C(=O)NC6CCC(Oc7ccc(C#N)c(Cl)c7)CC6)nn5)CC4)C3)cc1)=NC(C)c1nnc(C)n1-2 (centres unmarked) [I-588] |  | < 0.5 |  |  |  |  |
| Cc1sc2c(c1C)C(c1ccc(C#CC3CC4(CCCN(c5ccc(C(=O)N[C@H]6CC[C@H](Oc7ccc(C#N)c(Cl)c7)CC6)nn5)C4)C3)cc1)=NC1(CC1)c1nnc(C)n1-2 (some centres unmarked) [I-445] |  | < 0.5 | > 3 |  |  |  |
| Cc1sc2c(c1C)C(c1ccc(N3C[C@@H]4CN(c5ccc(C(=O)N[C@H]6CC[C@H](Oc7ccc(C#N)c(Cl)c7)CC6)nn5)C[C@H]4C3)cc1)=N[C@@H](C)c1nnc(C)n1-2 [I-677] | < 0.5 | < 0.5 |  |  |  |  |
